Test results published in the supplement of paper PMC4862054.

Tested on: SK-BR-3
Assay: normalised response (% of control), CellTiter-Glo; higher = more viable cells (100 = DMSO, 0 = benzethonium chloride kill control)
Conditions: incubation time: 72 h
Summary of the method: (§1)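 Each entry is the normalised signal at a single concentration within a series. The series comprised 5 concentrations in 10-fold steps over a compound-specific 10,000-fold range, placed in 384-well plates into which breast cancer cell lines were seeded as 20 µl suspension and incubated 72 h. CellTox Green (485/520 nm) fluorescence and then CellTiter-Glo luminescence were read, with signals normalised per plate to 0.1 % DMSO (100) and a positive kill control (0).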

Going from `CN(C)c1nc(N(C)C)nc(N(C)C)n1` [Altretamine] (10000 nM) to `O=C(/C=C/c1cccc(S(=O)(=O)Nc2ccccc2)c1)NO` [Belinostat] (10000 nM), the normalised response falls from 108% to 0%.

Tested on: DU-4475
Assay: as above
Conditions: incubation time: 72 h
Summary of the method: as §1

Going from `N#Cc1ccc(COC[C@H]2O[C@@H](n3c(NCc4ccc(Cl)c(Cl)c4)nc4c(N)ncnc43)[C@H](O)[C@@H]2O)cc1` (10000 nM) to `COc1cc(OC2CCN(C)CC2)ccc1Nc1ncc2c(n1)n(C1CCCC1)c(=O)n2C` [AZ 3146] (10000 nM), the normalised response rises from 65.6% to 79.1%.

First: CN(C)c1nc(N(C)C)nc(N(C)C)n1 [Altretamine] (10000 nM)
Second: O=C(/C=C/c1cccc(S(=O)(=O)Nc2ccccc2)c1)NO [Belinostat] (10000 nM)
The normalised response of the first is higher: 107% for the first, 5.73% for the second.

Tested on: HCC1143
Assay: as above
Conditions: incubation time: 72 h
Summary of the method: as §1

First: N#Cc1ccc(COC[C@H]2O[C@@H](n3c(NCc4ccc(Cl)c(Cl)c4)nc4c(N)ncnc43)[C@H](O)[C@@H]2O)cc1 (10000 nM)
Second: COc1cc(OC2CCN(C)CC2)ccc1Nc1ncc2c(n1)n(C1CCCC1)c(=O)n2C [AZ 3146] (10000 nM)
The normalised response of the first is lower: 66.2% for the first, 70.4% for the second.

Going from `CN(C)c1nc(N(C)C)nc(N(C)C)n1` [Altretamine] (10000 nM) to `O=C(/C=C/c1cccc(S(=O)(=O)Nc2ccccc2)c1)NO` [Belinostat] (10000 nM), the normalised response falls from 100% to 12.4%.

Tested on: BT-549
Assay: as above
Conditions: incubation time: 72 h
Summary of the method: as §1

First: N#Cc1ccc(COC[C@H]2O[C@@H](n3c(NCc4ccc(Cl)c(Cl)c4)nc4c(N)ncnc43)[C@H](O)[C@@H]2O)cc1 (10000 nM)
Second: COc1cc(OC2CCN(C)CC2)ccc1Nc1ncc2c(n1)n(C1CCCC1)c(=O)n2C [AZ 3146] (10000 nM)
The normalised response of the first is lower: 61.8% for the first, 64.3% for the second.

Compared with `CN(C)c1nc(N(C)C)nc(N(C)C)n1` [Altretamine] (10000 nM), `O=C(/C=C/c1cccc(S(=O)(=O)Nc2ccccc2)c1)NO` [Belinostat] (10000 nM) is lower in normalised response: 102% for the first, 17.8% for the second.

Tested on: MDA-MB-436
Assay: as above
Conditions: incubation time: 72 h
Summary of the method: as §1

Going from `N#Cc1ccc(COC[C@H]2O[C@@H](n3c(NCc4ccc(Cl)c(Cl)c4)nc4c(N)ncnc43)[C@H](O)[C@@H]2O)cc1` (10000 nM) to `COc1cc(OC2CCN(C)CC2)ccc1Nc1ncc2c(n1)n(C1CCCC1)c(=O)n2C` [AZ 3146] (10000 nM), the normalised response falls from 85.1% to 79.3%.

Compared with `CN(C)c1nc(N(C)C)nc(N(C)C)n1` [Altretamine] (10000 nM), `O=C(/C=C/c1cccc(S(=O)(=O)Nc2ccccc2)c1)NO` [Belinostat] (10000 nM) is lower in normalised response: 107% for the first, 29.3% for the second.

Tested on: MFM-223
Assay: as above
Conditions: incubation time: 72 h
Summary of the method: as §1

Compared with `N#Cc1ccc(COC[C@H]2O[C@@H](n3c(NCc4ccc(Cl)c(Cl)c4)nc4c(N)ncnc43)[C@H](O)[C@@H]2O)cc1` (10000 nM), `COc1cc(OC2CCN(C)CC2)ccc1Nc1ncc2c(n1)n(C1CCCC1)c(=O)n2C` [AZ 3146] (10000 nM) is lower in normalised response: 74.3% for the first, 72.1% for the second.

Going from `CN(C)c1nc(N(C)C)nc(N(C)C)n1` [Altretamine] (10000 nM) to `O=C(/C=C/c1cccc(S(=O)(=O)Nc2ccccc2)c1)NO` [Belinostat] (10000 nM), the normalised response falls from 106% to 26.1%.

Tested on: CAL-120
Assay: as above
Conditions: incubation time: 72 h
Summary of the method: as §1

Compared with `N#Cc1ccc(COC[C@H]2O[C@@H](n3c(NCc4ccc(Cl)c(Cl)c4)nc4c(N)ncnc43)[C@H](O)[C@@H]2O)cc1` (10000 nM), `COc1cc(OC2CCN(C)CC2)ccc1Nc1ncc2c(n1)n(C1CCCC1)c(=O)n2C` [AZ 3146] (10000 nM) is lower in normalised response: 83.7% for the first, 81% for the second.

Compared with `CN(C)c1nc(N(C)C)nc(N(C)C)n1` [Altretamine] (10000 nM), `O=C(/C=C/c1cccc(S(=O)(=O)Nc2ccccc2)c1)NO` [Belinostat] (10000 nM) is lower in normalised response: 100% for the first, 7.76% for the second.

Tested on: CAL-85-1
Assay: as above
Conditions: incubation time: 72 h
Summary of the method: as §1

First: N#Cc1ccc(COC[C@H]2O[C@@H](n3c(NCc4ccc(Cl)c(Cl)c4)nc4c(N)ncnc43)[C@H](O)[C@@H]2O)cc1 (10000 nM)
Second: COc1cc(OC2CCN(C)CC2)ccc1Nc1ncc2c(n1)n(C1CCCC1)c(=O)n2C [AZ 3146] (10000 nM)
The normalised response of the first is higher: 86.3% for the first, 51.7% for the second.

First: CN(C)c1nc(N(C)C)nc(N(C)C)n1 [Altretamine] (10000 nM)
Second: O=C(/C=C/c1cccc(S(=O)(=O)Nc2ccccc2)c1)NO [Belinostat] (10000 nM)
The normalised response of the first is higher: 108% for the first, 6.45% for the second.

Tested on: HCC1937
Assay: as above
Conditions: incubation time: 72 h
Summary of the method: as §1

Going from `N#Cc1ccc(COC[C@H]2O[C@@H](n3c(NCc4ccc(Cl)c(Cl)c4)nc4c(N)ncnc43)[C@H](O)[C@@H]2O)cc1` (10000 nM) to `COc1cc(OC2CCN(C)CC2)ccc1Nc1ncc2c(n1)n(C1CCCC1)c(=O)n2C` [AZ 3146] (10000 nM), the normalised response rises from 51.6% to 70.3%.

Compared with `CN(C)c1nc(N(C)C)nc(N(C)C)n1` [Altretamine] (10000 nM), `O=C(/C=C/c1cccc(S(=O)(=O)Nc2ccccc2)c1)NO` [Belinostat] (10000 nM) is lower in normalised response: 100% for the first, 20.5% for the second.

Tested on: HDQ-P1
Assay: as above
Conditions: incubation time: 72 h
Summary of the method: as §1

Compared with `N#Cc1ccc(COC[C@H]2O[C@@H](n3c(NCc4ccc(Cl)c(Cl)c4)nc4c(N)ncnc43)[C@H](O)[C@@H]2O)cc1` (10000 nM), `COc1cc(OC2CCN(C)CC2)ccc1Nc1ncc2c(n1)n(C1CCCC1)c(=O)n2C` [AZ 3146] (10000 nM) is higher in normalised response: 69.6% for the first, 70.6% for the second.

First: CN(C)c1nc(N(C)C)nc(N(C)C)n1 [Altretamine] (10000 nM)
Second: O=C(/C=C/c1cccc(S(=O)(=O)Nc2ccccc2)c1)NO [Belinostat] (10000 nM)
The normalised response of the first is higher: 97.8% for the first, 30.4% for the second.
